The values that follow come from PMC5296257 (Bioorganic & medicinal chemistry letters, 2017).

The test system of data set [1] is C/EBP-homologous protein (CHOP). Conditions: cited from earlier work.
In data set [2] the test system is T. brucei bloodstream form (BSF). Briefly: T. brucei bloodstream form parasite viability. It is filed as cell-based, Trypanosoma brucei. The following applies: SI = IMR90 EC50/parasite EC50.
In data set [3] the test system is L. amazonensis promastigote form parasites. Put plainly: L. amazonensis promastigote viability. It is filed as cell-based. Conditions: SI = IMR90 EC50/parasite EC50.
Data set [4] is described as follows: Mammalian cytotoxicity on non-immortalized IMR90 cells. It is filed as cell-based. The following applies: human.
Data set [5] deals with T. brucei BSF 90-13 parasites. Put plainly: Annexin V-FITC labeling. The class given is cell-based. The following applies: BSF trypanosomes, 6 h exposure at compound's EC50 value; control line 463.

What is called EC50 is the concentration at which the effect is half-maximal.

With `CC1(C)CCN(S(=O)(=O)c2ccc(NC(=O)c3ccc(C(F)(F)F)o3)cc2)CC1` [Compound 20], the “mammalian CHOP activity” value in data set [1] is recorded as “no mammalian CHOP activity”. In data set [2], the “T. brucei selectivity index, SI” value is more than 3. The “L. amazonensis selectivity index, SI” value in data set [3] is more than 2. In data set [4], this molecule displayed an EC50 of more than 25 µM.
In the case of `O=C(Nc1ccc(S(=O)(=O)N2CCC3(CCCCC3)CC2)cc1)c1ccc([N+](=O)[O-])o1` [Compound 6], the “T. brucei selectivity index, SI” value in data set [2] is recorded as more than 833. Moreover, the “L. amazonensis selectivity index, SI” value in data set [3] is given as more than 17. Moreover, the EC50 in data set [4] was more than 25 µM.
Consider `O=C(Nc1ccc(S(=O)(=O)N2CCOCC2)cc1)c1cccs1` [Compound 15], for which the EC50 in data set [4] is more than 25 µM.
On to `O=C(Nc1ccc(S(=O)(=O)N2CCC(Cl)CC2)cc1)c1ccc([N+](=O)[O-])o1` [Compound 8], for which the “T. brucei selectivity index, SI” value in data set [2] was more than 313. For the same molecule, the “L. amazonensis selectivity index, SI” value in data set [3] is more than 3. The same molecule yielded an EC50 in data set [4] of more than 25 µM.
The corresponding values for `O=C(Nc1ccc(S(=O)(=O)c2ccccc2)cc1)c1ccc([N+](=O)[O-])o1` [Compound 13] are more than 227, more than 6 and more than 25 µM.
`CC(C)(C)C1CCN(S(=O)(=O)c2ccc(NC(=O)c3ccc([N+](=O)[O-])o3)cc2)CC1` [Compound 5]: the “Annexin-V labeling, relative fluorescence median signal” value in data set [5] came out at 1225. Moreover, in data set [2], the “T. brucei selectivity index, SI” value is given as more than 833. Moreover, in data set [3], the “L. amazonensis selectivity index, SI” value is recorded as more than 18. This molecule also showed an EC50 in data set [4] of more than 25 µM.
As to `O=C(Nc1ccc(S(=O)(=O)N2CCOCC2)cc1)c1ccc([N+](=O)[O-])cc1` [Compound 18], the EC50 in data set [4] was more than 25 µM.
`O=C(Nc1ccc(S(=O)(=O)N2CCOCC2)cc1)c1ccc([N+](=O)[O-])s1` [Compound 21]: in data set [2], the “T. brucei selectivity index, SI” value is on record as more than 417. Further, the “L. amazonensis selectivity index, SI” value in data set [3] is reported as more than 19. The same molecule yielded an EC50 in data set [4] of more than 25 µM.
For `O=C(Nc1ccc(S(=O)(=O)N2CCC(O)CC2)cc1)c1ccc([N+](=O)[O-])o1` [Compound 7] the same measures were more than 81, more than 6 and more than 25 µM.
For `CC(C)(C)C1CCN(S(=O)(=O)c2ccc(NC(=O)c3ccc([N+](=O)[O-])s3)cc2)CC1` [Compound 23] the same measures were more than 833, more than 250 and more than 25 µM.
In data set [4], `O=C(Nc1ccc(S(=O)(=O)N2CCOCC2)cc1)c1ccco1` [Compound 14] displayed an EC50 of more than 25 µM.
Turning to `O=C(Nc1ccc(S(=O)(=O)N2CCOCC2)cc1)c1ccc([N+](=O)[O-])o1` [Compound 1], in data set [2], the “T. brucei selectivity index, SI” value is given as more than 54. Further, in data set [3], the “L. amazonensis selectivity index, SI” value is recorded as more than 8. For the same molecule, in data set [4], the EC50 is more than 25 µM.
In the case of `CC1(C)CCN(S(=O)(=O)c2cccc(NC(=O)c3ccc([N+](=O)[O-])s3)c2)CC1` [Compound 25], in data set [2], the “T. brucei selectivity index, SI” value is reported as more than 556. Besides, the “L. amazonensis selectivity index, SI” value in data set [3] is more than 19. In data set [4], this molecule returned an EC50 of more than 25 µM.
For `N=C1CCN(S(=O)(=O)c2ccc(NC(=O)c3ccc([N+](=O)[O-])o3)cc2)CC1` [Compound 10] the same measures were more than 34, more than 2 and more than 25 µM.
`O=C(Nc1ccc(S(=O)(=O)N2CCC3(CCCCC3)CC2)cc1)c1ccc([N+](=O)[O-])s1` [Compound 24]: the “T. brucei selectivity index, SI” value in data set [2] is more than 1250. Further, in data set [3], the “L. amazonensis selectivity index, SI” value is on record as more than 250. Moreover, the EC50 in data set [4] was more than 25 µM.
Take `O=C(Nc1ccc(S(=O)(=O)C2=CCOC=C2)cc1)c1ccc([N+](=O)[O-])o1` [Compound 12]: in data set [2], the “T. brucei selectivity index, SI” value is more than 47. Moreover, the “L. amazonensis selectivity index, SI” value in data set [3] was more than 83. Also, in data set [4], the EC50 is more than 25 µM.
`O=C(Nc1ccc(S(=O)(=O)N2CCOCC2)cc1)c1ccccc1` [Compound 16] yielded an EC50 in data set [4] of more than 25 µM.
As for `CC1(C)CCN(S(=O)(=O)c2cccc(NC(=O)c3ccc([N+](=O)[O-])o3)c2)CC1` [Compound 26], the “T. brucei selectivity index, SI” value in data set [2] was more than 78. Also, the “L. amazonensis selectivity index, SI” value in data set [3] is given as more than 250. The EC50 in data set [4] was more than 25 µM.
Take `Cc1ccc(C(=O)Nc2ccc(S(=O)(=O)N3CCOCC3)cc2)o1` [Compound 17]: the EC50 in data set [4] was more than 25 µM.
Turning to `CC1(C)CCN(S(=O)(=O)c2ccc(NC(=O)c3cccc([N+](=O)[O-])c3)cc2)CC1` [Compound 19], in data set [1], the “mammalian CHOP activity” value is “no mammalian CHOP activity”. Moreover, in data set [2], the “T. brucei selectivity index, SI” value is listed as more than 4. In data set [3], the “L. amazonensis selectivity index, SI” value is on record as more than 2. The EC50 in data set [4] was more than 25 µM.
As to `O=C(Nc1ccc(S(=O)(=O)C2CCCCC2)cc1)c1ccc([N+](=O)[O-])o1` [Compound 11], in data set [2], the “T. brucei selectivity index, SI” value is reported as more than 51. Further, the “L. amazonensis selectivity index, SI” value in data set [3] is reported as more than 16. Besides, the EC50 in data set [4] was more than 25 µM.
On to `O=C(Nc1ccc(S(=O)(=O)N2CCCCC2)cc1)c1ccc([N+](=O)[O-])o1` [Compound 2], for which the “T. brucei selectivity index, SI” value in data set [2] is more than 114. The “L. amazonensis selectivity index, SI” value in data set [3] is reported as more than 2. In data set [4], this molecule showed an EC50 of more than 25 µM.
Consider `CC1(C)CCN(S(=O)(=O)c2ccc(NC(=O)c3ccc([N+](=O)[O-])s3)cc2)CC1` [Compound 22], for which, in data set [2], the “T. brucei selectivity index, SI” value was more than 2500. In addition, the “L. amazonensis selectivity index, SI” value in data set [3] was more than 250. The molecule also came in with an EC50 in data set [4] of more than 25 µM.
The corresponding values for `CC1(C)CCN(S(=O)(=O)c2ccc(NC(=O)c3ccc([N+](=O)[O-])o3)cc2)CC1` [Compound 4] are more than 278, more than 89 and more than 25 µM.
The corresponding values for `CC1(C)CCN(S(=O)(=O)c2cccc(NC(=O)c3ccco3)c2)CC1` [Compound 27] are more than 5, more than 21 and more than 25 µM.
For `CC1CCN(S(=O)(=O)c2ccc(NC(=O)c3ccc([N+](=O)[O-])o3)cc2)CC1` [Compound 3] the same measures were more than 208, more than 3 and more than 25 µM.
As to `O=C(Nc1cccc(S(=O)(=O)N2CCOCC2)c1)c1ccc([N+](=O)[O-])o1` [Compound 29], the “T. brucei selectivity index, SI” value in data set [2] is listed as more than 17. The “L. amazonensis selectivity index, SI” value in data set [3] is given as more than 28. In data set [4], this molecule displayed an EC50 of more than 25 µM.
For the molecule `CC1(C)CCN(S(=O)(=O)c2cccc(NC(=O)c3cccc([N+](=O)[O-])c3)c2)CC1` [Compound 28], in data set [2], the “T. brucei selectivity index, SI” value is more than 2. In data set [3], the “L. amazonensis selectivity index, SI” value was more than 8. The EC50 in data set [4] was more than 25 µM.
The corresponding values for `O=C(Nc1ccc(S(=O)(=O)N2CCC(F)CC2)cc1)c1ccc([N+](=O)[O-])o1` [Compound 9] are more than 60, more than 3 and more than 25 µM.
